One data set concerns the target T1, CjSlc16 (Williopsis jadinii, UniProt A0A1E4RTM6).
T1 construct: gene CYBJADRAFT_170140
The following applies: pH 6.0, 30 °C; labelled compound.

A further data set has as its target T2, CjSlc13-2 (Williopsis jadinii, UniProt A0A1E4S914).
T2 construct: gene CYBJADRAFT_165372
The following applies: pH 6.0, 30 °C; labelled compound.

A further data set addresses T3, CjSlc13-1 (Williopsis jadinii, UniProt A0A1E4RYH4).
T3 construct: gene CYBJADRAFT_194887
The following applies: pH 6.0, 30 °C; labelled compound.

Another data set deals with T4, CjAto5 (Williopsis jadinii, UniProt A0A1E4RU05).
T4 construct: gene CYBJADRAFT_178915; full ORF in p416GPD, expressed in S. cerevisiae IMX1000; cloned from DSM 2361 DNA
T4 sequence (A0A1E4RU05 1-272): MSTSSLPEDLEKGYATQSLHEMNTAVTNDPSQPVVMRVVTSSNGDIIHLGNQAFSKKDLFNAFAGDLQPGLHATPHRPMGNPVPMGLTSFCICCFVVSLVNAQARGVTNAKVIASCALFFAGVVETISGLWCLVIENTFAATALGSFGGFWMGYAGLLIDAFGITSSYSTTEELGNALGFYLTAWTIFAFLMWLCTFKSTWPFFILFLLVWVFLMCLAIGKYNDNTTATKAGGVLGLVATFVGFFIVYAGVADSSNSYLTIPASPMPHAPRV
The data set is described as follows: […]-succinate uptake, initial rates in S. cerevisiae IMX1000. The format is cell-based. To be noted: pH 5.0, 30 °C; labelled compound.

A further data set concerns the target T5, CjAto2 (Williopsis jadinii, UniProt A0A1E4S9G0).
T5 construct: gene CYBJADRAFT_7539; full ORF in p416GPD, expressed in S. cerevisiae IMX1000; cloned from DSM 2361 DNA
The description is as above. The format is cell-based. To be noted: pH 5.0, 30 °C; labelled compound.

Substrate in data set [1]: O=C(O)CC(O)(CC(=O)O)C(=O)O
Put plainly: cells, lysate or membranes. To be noted: pH 5.5, 30 °C, labelled compound, pH 5.5.

Substrate in data set [2]: C[C@H](O)C(=O)O
The data set is described as follows: cells, lysate or membranes. To be noted: pH 5.0, 30 °C, labelled compound, pH 5.0.

T2 sequence (A0A1E4S914 1-821): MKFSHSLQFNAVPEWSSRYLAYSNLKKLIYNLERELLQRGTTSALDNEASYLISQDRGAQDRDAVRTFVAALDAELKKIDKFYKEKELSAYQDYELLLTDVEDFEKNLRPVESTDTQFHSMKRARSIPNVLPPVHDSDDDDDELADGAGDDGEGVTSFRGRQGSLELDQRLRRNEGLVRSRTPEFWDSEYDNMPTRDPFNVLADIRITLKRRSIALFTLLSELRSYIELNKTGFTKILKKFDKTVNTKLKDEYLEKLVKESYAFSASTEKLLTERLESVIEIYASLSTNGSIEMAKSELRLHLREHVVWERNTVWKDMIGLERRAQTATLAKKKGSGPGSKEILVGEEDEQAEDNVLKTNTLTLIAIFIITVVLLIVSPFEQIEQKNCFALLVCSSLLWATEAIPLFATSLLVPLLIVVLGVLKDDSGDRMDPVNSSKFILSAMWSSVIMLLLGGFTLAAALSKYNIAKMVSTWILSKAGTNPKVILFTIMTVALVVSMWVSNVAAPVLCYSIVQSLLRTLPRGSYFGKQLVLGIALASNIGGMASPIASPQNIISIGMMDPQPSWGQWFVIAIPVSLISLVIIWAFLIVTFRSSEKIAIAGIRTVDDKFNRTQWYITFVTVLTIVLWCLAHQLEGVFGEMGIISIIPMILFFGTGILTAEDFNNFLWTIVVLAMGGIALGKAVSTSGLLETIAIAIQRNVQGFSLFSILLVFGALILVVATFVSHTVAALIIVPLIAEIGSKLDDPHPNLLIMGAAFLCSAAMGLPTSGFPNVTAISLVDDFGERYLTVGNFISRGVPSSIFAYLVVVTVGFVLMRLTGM
T1 sequence (A0A1E4RTM6 1-470): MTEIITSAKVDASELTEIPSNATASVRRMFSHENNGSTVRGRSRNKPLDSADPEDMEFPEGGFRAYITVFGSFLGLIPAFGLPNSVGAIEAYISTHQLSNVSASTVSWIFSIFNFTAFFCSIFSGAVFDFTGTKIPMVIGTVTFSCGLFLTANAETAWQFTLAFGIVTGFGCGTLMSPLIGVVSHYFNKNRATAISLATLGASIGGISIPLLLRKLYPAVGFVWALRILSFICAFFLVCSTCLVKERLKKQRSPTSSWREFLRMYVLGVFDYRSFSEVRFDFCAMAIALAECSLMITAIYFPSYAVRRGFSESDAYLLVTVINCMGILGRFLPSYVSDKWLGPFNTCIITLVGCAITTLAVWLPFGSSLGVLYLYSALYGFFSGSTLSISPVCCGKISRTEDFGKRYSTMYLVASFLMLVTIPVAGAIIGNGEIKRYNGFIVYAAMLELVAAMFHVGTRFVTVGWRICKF
T3 sequence (A0A1E4RYH4 1-843): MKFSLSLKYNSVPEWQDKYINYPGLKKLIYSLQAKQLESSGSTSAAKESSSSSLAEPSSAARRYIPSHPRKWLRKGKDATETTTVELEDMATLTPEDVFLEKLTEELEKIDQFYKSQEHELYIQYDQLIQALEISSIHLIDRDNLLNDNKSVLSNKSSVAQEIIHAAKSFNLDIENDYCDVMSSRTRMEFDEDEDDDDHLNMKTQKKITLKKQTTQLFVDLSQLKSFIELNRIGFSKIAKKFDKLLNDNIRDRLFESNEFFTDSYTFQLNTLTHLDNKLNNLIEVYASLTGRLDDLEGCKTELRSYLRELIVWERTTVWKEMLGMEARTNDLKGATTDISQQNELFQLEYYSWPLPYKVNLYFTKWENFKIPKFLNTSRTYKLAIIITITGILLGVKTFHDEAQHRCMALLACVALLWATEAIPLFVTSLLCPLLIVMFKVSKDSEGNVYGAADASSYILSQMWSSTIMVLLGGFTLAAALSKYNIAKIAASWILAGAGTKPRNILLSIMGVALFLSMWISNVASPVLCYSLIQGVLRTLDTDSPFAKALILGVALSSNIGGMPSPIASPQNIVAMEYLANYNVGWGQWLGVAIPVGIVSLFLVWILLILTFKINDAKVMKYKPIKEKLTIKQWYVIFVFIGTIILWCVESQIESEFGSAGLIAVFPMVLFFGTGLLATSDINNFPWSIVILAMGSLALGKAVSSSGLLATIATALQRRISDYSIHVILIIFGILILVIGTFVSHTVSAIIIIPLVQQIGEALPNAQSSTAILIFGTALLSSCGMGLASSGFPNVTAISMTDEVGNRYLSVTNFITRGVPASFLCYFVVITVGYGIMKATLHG

Take `CC(=O)O` [acetic acid]: the uptake entry at CjSlc16, at CjSlc13-2 and on CjSlc13-1 was “All transformants presented activity for acetate uptake (Figure 3C)” each time.
`O=C(O)CCC(=O)O` [succinic acid]: the figures for the Michaelis-Menten constant (Km) on CjAto5 and on CjAto2 were 0.45 ± 0.09 mM and 3.38 ± 0.82 mM, respectively.

B1: CjSlc5 (Williopsis jadinii) (protein)
chain: MFAETEDGPDYRGVTTFGAAVLIAKGQLGLGVLGIPSTFDVLGFVPGLISLVGLSILVTWTGVVIGQFRLAHPKVYCIDDATEIMFGKAARELVGWGYWLFYTMCYGAALITVSIALNTFSDHGLCTMAFIGIATGATTILTLFTRTMKVLSWLGFIAISCIFFAIWVVAIACLTQSTPAAAESLVDPAKKVIQVVATHSSYKKIAAAVSVQLLSLAGGASFFTIHAEMKDQTKYTKSLLMGQGFIVFNYIAIACIMYAKVGQYIASPALGSAGRTFQIISYGIAFPGLMFSCFFLAHLAAKYALVRILRGTEHLQKNSKTHWITWTAMVAIVIAVGFVIAGAIPFFGDLLGLIGALLGSIFALIAPGFMCLYDMNYKFEGKVPRGYTWIYKNNGSWTKNFWTKLETLLSFFCIASGIYILFTGVYGSIASIADLYSSGAVSGAFSCADNS
For B1, the Michaelis-Menten constant (Km) in data set [1] came out at 17.24 ± 4.73 mM.

B2: CjJen6 (Williopsis jadinii) (protein)
chain: MGFKTYSMSECAQYTRERFTTLLPSREQWEVEKSHMNPFPGLRAMTWRNWQFYIIGMLAWTWDALDFFAMSLNMSNISEDLNRSVKDVSWGITLVLMFRSVGAIFFGYFGDRYGRKWPLIVNLICLIVIQIGTGFVKTYSEFLGVRALFGIFMGSMYGLASATALEGLPTDARSFLSGVFQQGYALGYLLAVIFQRAITDTTEKGWRSLFWFSAGPPVLFILWRAFLPETEEFLQQKLHMSNRKSTFRRDAWNTFKQQWVKMGYLVLLMAGMNFMSHGSQDLYPTMLTKQLGFSSDRSTVTNSVANLGAMAGGMVIGHFSGFIGRRAAIMVCCICGGAMIYPWAFVTGNGINAGVFFLQFFVQGAWGVIPIHLSELSPPEFRAFVVGVSYQLGNLVSSASSTIETTIGERFPLYTETGERREGVYDYAKVMAIFVGAVFAYVFLISFIGPENRHANINFVLSDEEQREMVSQGKIITHKGSDDENLDEEKAVAFHTENVVSEVK
Turning to B2, in data set [1], the Michaelis constant (Km) is 21.44 ± 7.17 mM.

B3: CjAto2 (Williopsis jadinii) (protein)
chain: MSSINEDLEKISSLGELNYDSHPISQVRTAGPNDEFVMLGRMKVRKSELWSAFGGDLQPGVHAQPQRKFANPVPIGLCGFALTTLVLSMANARAMGIRTPNVAVAPAFFYGGFAQILAGMWEIALENTFGSVVLTSYGCFWLSWAAIEIDWFGIKAAYDDPIELENAIGFFLLGWVIFTFLILLCTMKSTVAFFSMFFLLEITFILLTVASFTRHVGCQRAGGVFGVITGFLAWYNAYAGIATKEISYFVPKPWPLPGASHL
For B3, the Km in data set [2] worked out at 4.33 ± 0.70 mM.

The record behind these values is publication PMC8779868, “Uncovering Novel Plasma Membrane Carboxylate Transporters in the Yeast Cyberlindnera jadinii” (Journal of Fungi, 2022).
